{"source": "patent US6586183B2", "about": "“Association of β2-adrenergic receptor haplotypes with drug response” (Genaissance Pharmaceuticals, Inc., priority 2000, dated 2003)", "system": "asthma patients", "assay": "Bronchodilator response (spirometry, FEV1) of asthma patients to inhaled albuterol, by β2AR haplotype pair", "type": "in vivo, human", "experimental": "The patients in the asthma cohort were enrolled from an outpatient facility as described in detail elsewhere (Yan, L., Galinsky, R. E., Bernstein, J. A., Liggett, S. B. & Weinshilboum, R. M. (1999) Pharmacogenetics in Press). […] Forced expiratory volume in 1 second (FEV1) and forced vital capacity (FVC) were determined in triplicate. The predicted values for these measurements were calculated based on standard algorithms (Morris, J. F., Koski, A. & Johnson, L. C. (1971) Am Rev Respir Dis 103, 57-67).\nThe association between changes in % predicted FEV1 and haplotype pair was assessed by fitting an analysis of covariance model (ANCOVA) with terms for haplotype pair, sex and baseline severity. P-values from pairwise comparisons by haplotype pair were adjusted for multiple comparisons by applying the Holm-Sidak step-down procedure (Ludbrook, J. (1998) Clin and Exp Pharmacology & Physiology 25, 1032-1037.). […] In addition, the African-American asthma patients were excluded from the analysis due to the low number of individuals in this population group. For the analysis of individual SNPs, a similar ANCOVA model was employed with a discrete term for SNP genotype, and terms for sex and baseline severity. The Holm-Sidak step-down procedure was used to adjust the p-values from the individual SNP analyses for the number of tests performed.\nPairwise tests were made while correcting for multiple comparisons. […] For this analysis, a similar ANCOVA model as above was utilized. […] Since 0, 1 or 2 copies of these two haplotypes are present in our population as haplotype pairs 2/2, 2/4 and 4/4, a potential gene dose effect can be assessed by regression analysis.", "data": [{"compound": "CC(C)(C)NCC(O)c1ccc(O)c(CO)c1", "note": "(stereo not drawn) [albuterol]", "values": [{"measurement": "bronchodilator response to albuterol", "setting": "asthmatic patients with haplotype pair 2/6", "result": "moderate bronchodilator response"}, {"measurement": "bronchodilator response to albuterol", "setting": "asthmatic patients with haplotype pairs 2/2 and 4/6", "result": "respond well"}, {"measurement": "bronchodilator response to albuterol", "setting": "asthmatic patients with haplotype pairs 2/4 and 4/4", "result": "little to no response"}]}]}
